Where two headings read alike, the source gives them in different places.
Legend:
[1] = biological target: human FXIa protein (hFXIa) (Homo sapiens (Human), UniProt P03951); experiment: Enzyme activity assay in vitro (FXIa, S-2366 substrate); assay type: biochemical; settings: absorbance at OD405nm
Procedure: II. Enzyme Activity Assay In Vitro
Method: the test compound was dissolved in 10 mM mother liquor with DMSO, and stored at −80° C. until use.

[2] = system: human plasma; experiment: Determination of activated partial thromboplastin time (APTT); assay type: biochemical
Procedure: 1. Determination of Activated Partial Thromboplastin Time (APTT)
1. Preparation of human plasma: human venous whole blood was collected and placed in 3.2% sodium citrate anticoagulation tube (human blood: sodium citrate=9:1 (V/V)). The tube was centrifuged at ˜1560 g for 8 min, to obtain human plasma.
2. Preparation of the test sample: the test compound was dissolved in DMSO, and diluted in gradient to obtain 3000, 600, 120, 24, 4.8 μM stock solutions; each stock solution was mixed with the human plasma as prepared under item 1 at a ratio of 1:49 (V/V).
3. Negative control: DMSO solvent without the test compound was diluted in gradient to obtain 3000, 600, 120, 24, 4.8 μM stock solutions; each stock solution was mixed with the human plasma as prepared under item 1 at a ratio of 1:49 (V/V).
4. Test: After mixing the test solution of the above test sample and that of the negative control separately for 3 to 5 minutes, 30 μL of the test solution was added to the machine (MC-2000 coagulometer), and pre-warmed at 37° C. for 2 min; 30 μL of APTT reagent (MDC Hemostasis, Cat: 300025) was added and incubated at 37° C. for 5 min; and then 30 μL CaCl2 was added to initiate the APTT measurement.
According to the measured APTT result, APTT ratio was calculated according to the following formula. APTT ratio=(APTTtest compound/APTTnegative control).
Exponential equation was used to fit the Lg (concentration) to APTT ratio (Origin Pro 8.5.1 SR2), the drug working concentrations at 1.5 times APTT ratio and 2 times APTT ratio were calculated, namely EC150 and EC200.

[3] = drug working concentration at 1.5 times APTT ratio, read-out: EC150
[4] = drug working concentration at 2 times APTT ratio, read-out: EC200

Chain of human FXIa protein (hFXIa) (P03951 388-625): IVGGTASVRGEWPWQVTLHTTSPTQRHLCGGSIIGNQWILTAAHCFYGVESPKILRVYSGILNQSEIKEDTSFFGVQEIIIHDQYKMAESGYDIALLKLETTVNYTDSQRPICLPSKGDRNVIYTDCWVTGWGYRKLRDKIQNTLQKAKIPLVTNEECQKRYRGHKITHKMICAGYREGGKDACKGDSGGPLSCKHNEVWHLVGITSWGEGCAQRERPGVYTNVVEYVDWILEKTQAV
Chain of human FXIa protein (hFXIa) (P03951 19-387 partner): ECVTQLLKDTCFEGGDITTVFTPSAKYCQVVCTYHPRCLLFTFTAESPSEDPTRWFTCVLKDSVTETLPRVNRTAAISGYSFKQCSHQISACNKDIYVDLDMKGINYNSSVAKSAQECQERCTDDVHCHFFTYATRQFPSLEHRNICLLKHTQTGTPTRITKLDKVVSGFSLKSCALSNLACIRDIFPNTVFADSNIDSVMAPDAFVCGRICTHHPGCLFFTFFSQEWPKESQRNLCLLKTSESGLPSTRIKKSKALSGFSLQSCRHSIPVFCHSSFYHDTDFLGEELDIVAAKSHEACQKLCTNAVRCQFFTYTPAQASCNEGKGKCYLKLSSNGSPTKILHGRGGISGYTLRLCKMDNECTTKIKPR

Row | Compound | IC50 [1] [nM] | concentration giving fixed-fold APTT prolongation [2, 3] [µM] | concentration giving fixed-fold APTT prolongation [2, 4] [µM]
1 | N#Cc1ccc2c(c1)CCN2C(=O)N1C(=O)[C@H](Cc2ccnc(N)c2)[C@H]1C(=O)O [Example 13] | 23.2 | – | –
2 | Nc1cc(C[C@H]2C(=O)N(C(=O)N3CCC[C@H](c4ccccc4)C3)[C@@H]2C(=O)O)ccn1 [Example 16] | 1.89 | 1.41 | 6.99
3 | CS(=O)(=O)NC(=O)[C@@H]1[C@@H](Cc2ccnc(N)c2)C(=O)N1C(=O)N1CCCCC1c1ccccc1 (stereo partly shown) [Example 18] | 10.7 | – | –
4 | CNC(=O)[C@@H]1[C@@H](Cc2ccnc(N)c2)C(=O)N1C(=O)N1CCCCC1c1ccccc1 (stereo partly shown) [Example 19] | 5.99 | – | –
5 | CN(C)C(=O)[C@@H]1[C@@H](Cc2ccnc(N)c2)C(=O)N1C(=O)N1CCCCC1c1ccccc1 (stereo partly shown) [Example 20] | 10.8 | – | –
6 | CNC(=O)[C@@H]1[C@@H](Cc2ccnc(N)c2)C(=O)N1C(=O)N1CCC[C@H](c2ccccc2)C1 [Example 23] | 1.5 | 1.48 | 4.4
7 | CN(C)C(=O)[C@@H]1[C@@H](Cc2ccnc(N)c2)C(=O)N1C(=O)N1CCC[C@H](c2ccccc2)C1 [Example 24] | 3.6 | – | –
8 | CS(=O)(=O)NC(=O)[C@@H]1[C@@H](Cc2ccnc(N)c2)C(=O)N1C(=O)N1CCC[C@H](c2ccccc2)C1 [Example 25] | 3.2 | – | –
9 | Nc1cc(C[C@H]2C(=O)N(C(=O)N3CCCC(c4ccc5c(c4)OC(F)(F)O5)C3)[C@@H]2C(=O)O)ccn1 (stereo partly shown) [Example 26] | 11.1 | – | –
10 | Cn1cc(C2CCCN(C(=O)N3C(=O)[C@H](Cc4ccnc(N)c4)[C@H]3C(=O)O)C2)cn1 (stereo partly shown) [Example 28] | 23.1 | – | –
11 | CNC(=O)[C@@H]1[C@@H](Cc2ccnc(N)c2)C(=O)N1C(=O)N1CCCC(c2ccc(F)cc2)C1 (stereo partly shown) [Example 30] | 2.4 | – | –
12 | NC(=O)[C@@H]1[C@@H](Cc2ccnc(N)c2)C(=O)N1C(=O)N1CCC[C@@H](c2ccccc2)C1 [Example 31] | 2.8 | – | –
13 | NC(=O)[C@@H]1[C@@H](Cc2ccnc(N)c2)C(=O)N1C(=O)N1CCCC(c2ccc3c(c2)OC(F)(F)O3)C1 (stereo partly shown) [Example 32] | 4.1 | – | –
14 | CNC(=O)[C@@H]1[C@@H](Cc2ccnc(N)c2)C(=O)N1C(=O)N1CCCC(c2ccc3c(c2)OC(F)(F)O3)C1 (stereo partly shown) [Example 33] | 3.5 | – | –
15 | CNC(=O)[C@@H]1[C@@H](Cc2ccnc(N)c2)C(=O)N1C(=O)N1CCC[C@@H](c2ccccc2)C1 [Example 41] | 4.1 | 2.18 | 8.22
16 | COC(=O)Nc1cccc(C2CCCN(C(=O)N3C(=O)[C@H](Cc4ccnc(N)c4)[C@H]3C(=O)O)C2)c1 (stereo partly shown) [Example 42] | 9.1 | – | –
17 | CNC(=O)[C@@H]1[C@@H](Cc2ccnc(N)c2)C(=O)N1C(=O)N1CCCC(C2CCCCCCC2)C1 (stereo partly shown) [Example 45] | 5.3 | – | –
18 | Nc1cc(C[C@H]2C(=O)N(C(=O)N3CCCC(c4cccc5ccccc45)C3)[C@@H]2C(=O)O)ccn1 (stereo partly shown) [Example 46] | 7.7 | – | –
19 | CNC(=O)[C@@H]1[C@@H](Cc2ccnc(N)c2)C(=O)N1C(=O)N1CCCC(c2ccccc2)C1 (stereo partly shown) [Example 51] | 3.3 | – | –
